Assay results reported in patent US6649628B1, “N-[2-hydroxy-3-(1-piperidinyl)propoxy]pyridine-1-oxide-3-carboximidoyl chloride and its use in the treatment of insulin resistance” (Biorex Kutato es Fejleszto RT, priority 1999, dated 2003).
Where two headings read alike, the source gives them in different places.

How the values were obtained:
STZ-diabetic rats = details: 2 month; for Scores lenticular + retinal improvement % / Scores lenticular + retinal mean ± SE / Scores retinal improvement % / Scores retinal mean ± SE: 5 mg/kg daily; for effect on lenticular and retinal pathologic histological alterations / effect on retinal histological alterations only: Compound-A 10 mg/kg, enantiomers 5 mg/kg daily
Method: After anesthesia (Calypsovet, 125 mg/kg. Ip., Richter Rt., Hungary), the eyes were enucleated and fixed in 4% formaldehyde dissolved in a phosphate buffer (pH:7.4).
Afterwards, they were embedded in paraffin (Medim DDM P800, embedding center: Lignifer L-120-92-014, stainer: Shandon Eliott, Microtome: is Leica SM 2000 R, Microscope: Jenaval Karl Zeiss Jena). Several 6 micron sections of the eyes were prepared, and hematoxilyn/eosine (Fluka) and PAS (periodic acid-Schiff, Fluka) staining were used. The light-microscopic evaluation was performed at a magnification of 40× and 100×. Photographs and slide positives were prepared of representative samples.
The histological evaluation was performed on coded samples, the group division was unknown for the examiner. Pathological deviations of the retina were graded on a scale of 0-20, while those of the lens on a scale of 0-3.
The statistical calculations were done with the Statistica 4.5 (SatSoft, USA) program. The given value for negative cases was 0.1. A Box and Whisker plot graph was also prepared.
For each group in the experiment, the mean±SE (Standard Error) values were calculated, and the comparison was done with the help of a non-parametric Mann-Whitney U-test (Graphpad Instat, San Diego, Calif.).

STZ-diabetic Wistar rats [1] = test: Experiment 6: Compound-A and enantiomers, nerve conduction velocity after 1 month treatment; details: for MNCV / MNCV improvement / SNCV / SNCV improvement: 5 mg/kg daily, 1 month; for effect on motor (MNCV) and sensory (SNCV) nerve conduction velocity deficits: Compound-A 10 mg/kg, enantiomers 5 mg/kg daily
Method: In the experiments, male Wistar rats were used (Charles River Laboratories Inc.). At the start of the experiment, their weights were 340-370 g. Diabetes was induced by the intravenous administration of a single 45 mg/kg dose of streptozotocine (STZ, Sigma, St. Louis, Mo.) dissolved in physiological saline solution. The development of diabetes was checked after 1 day by a blood glucose test, accepting a value over 15 mmol/l.
The test and reference substances were administered p.os to the animals once a day.
For the determination of nerve conduction velocity (NCV), the method of Stanley, modified by De Konig and Gispen was used. The animals were anesthetized by the simultaneous administration of Hyponorm (1 mg/kg ip., Janssen, Tilburg, Denmark), fluanisone (10 mg/ml), and phentanyl citrate (0.2 mg/ml). Afterwards, the left ischiadicus and tibial nerves were stimulated at standard points. Supramaximal stimulus (square impulse, 0.03 ms) was used with a platinum needle electrode, through a Nihon-Kohden (model SEN-1104, Japan) stimulator. The electromyogram (EMG) transferred from the sole muscles and intensified by a myograph (Elema-Schonander, Stockholm, Sweden) was analyzed further by the Matlab for Windows (Mathwork Inc, UK) program. The extent of NCV damage caused by diabetes was expressed in m/s. The effectiveness of the treatment was compared to this in terms of percentage (%). The statistical calculations were done by unpaired t-test or single-criterion ANOVA test (along with the Newman-Keuls post hoc test).

[2] = system: high fat (HF) diet insulin resistant male Wistar rats; test: Experiment 8: in vivo insulin-dependent glucose uptake (euglycaemic glucose clamp) in dietary induced insulin resistance; details: for effect on fasting blood glucose levels: 20 mg/kg daily, 3 weeks; for in vivo insulin mediated glucose uptake (glucose infusion rate, GIR): 20 mg/kg/day for 3 weeks, euglycaemic glucose clamp, insulin infusion 6.4 mU/kg/min
Method: Male Wistar rats (Charles River Laboratories Inc.) with an initial body weight of 300-350 g were used in the experiments.
Insulin resistance was induced by dietary manipulation: animals were given a high fat (HF) diet for 3 weeks. In the HF diet the proportion of saturated fats were dominant and gave 70% of total daily caloric intake.
Briefly: the fasting blood glucose concentration in different animal groups must be identical. Experiments were carried out in conscious, freely moving, chronicly canulated rats: first an insulin infusion (6.4 mU/kg/min) was started, followed by a parallel-run continuous glucose infusion to maintain blood glucose concentrations in the euglycaemic range. After stabilisation the quantity of infused glucose was measured for a 90 min. period (glucose infusion rate=GIR, mg/kg/min) which is the quantitative parameter of insulin sensitivity.

STZ-diabetic Wistar rats [3] = test: Experiment 5: urinary protein loss caused by diabetic nephropathy after 1-month treatment; format: in vivo, rat
Method: For the 24-hour period of urine collection, the animals were placed in individual metabolic cages. During this period they were given water ad libitum but no food. The latter measure was necessary to prevent possible contamination by the protein content of the food. Urine was collected in calibrated glass containers, in which Thymol crystal (Reanal 3135-1-08-38) was placed to prevent bacterial contamination.
Before measurement, the urine samples were centrifuged (2500 rpm) and filtered through a paper filter (Whatmann 1). If necessary, they were stored at −20° C. until measurement.
The total protein content of the urine was determined by the Bradford staining method (Sigma B-6916, St. Louis, Mo.), and color intensity was detected by spectrophotometry (Hitachi-U-3200).

[4] = system: Zucker Diabetic Fatty (ZDF) rats; details: for Fed serum glucose concentrations: 2 × 20 mg/kg/day
Method: A genetically diabetic animal model was selected and the Zucker Diabetic Fatty (ZDF) rats were used in the experiments. This model is the diabetic variant of the insulin resistant, obese but non-diabetic Zucker fa/fa animal model (see Experiment 1). In the ZDF rats diabetes developed at the age of 6-8 weeks preceded by an insulin resistant phase.
The effect of (A+) enantiomer was investigated in a treatment with a dose of 2×20 mg/kg/day started in the non-diabetic phase, at the age of 7 weeks and continued for 6 weeks.
Clinical chemistry parameters were measured by standard methods. The serum insulin concentrations were measured by a recently developed method (ELISA method, DRG lnternational,Inc., U.S.A.).

STZ-diabetic Wistar rats [5] = system: STZ-diabetic Wistar rats
From the text: The experiments were accomplished on Wistar rats with a body weight of 320-350 g. Diabetes was induced and checked as described in Experiment 2. In the test animals having been diabetic for 3 weeks the left nervus ischidiacus was injured by freezing and the right side one was used as non-injured control. The regeneration was observed by monitoring the signals of the flexor reflex provoked by irritation of the sole that is areas under curve (AUC) of the electromyogram transferred from the forward tibial muscle. For the stimulation and detection the system described in Experiment 2 was used. Single daily doses of 10 mg/kg of Compound-A and 5 mg/kg of A(+) enantiomer were administred for 5 weeks after the injury by freezing.

SMILES | Scores lenticular + retinal improvement % (STZ-diabetic rats) | Scores lenticular + retinal mean ± SE (STZ-diabetic rats) | Scores retinal improvement % (STZ-diabetic rats) | Scores retinal mean ± SE (STZ-diabetic rats) | effect on lenticular and retinal pathologic histological alterations (STZ-diabetic rats) | effect on retinal histological alterations only (STZ-diabetic rats) | MNCV (STZ-diabetic Wistar rats [1]) | MNCV improvement (STZ-diabetic Wistar rats [1]) | SNCV (STZ-diabetic Wistar rats [1]) | SNCV improvement (STZ-diabetic Wistar rats [1]) | effect on motor (MNCV) and sensory (SNCV) nerve conduction velocity deficits (STZ-diabetic Wistar rats [1]) | effect on fasting blood glucose levels [2] | in vivo insulin mediated glucose uptake (glucose infusion rate, GIR) [2] | other results
O=C(O)/C=C\C(=O)O.[O-][n+]1cccc(C(Cl)=NOC[C@@H](O)CN2CCCCC2)c1 [A(−), (−)-/S/-N-[2-hydroxy-3-(1-piperidinyl)-propoxy]-pyridine-1-oxide-3-carboximidoyl chloride (Z)-2-butenedioate (1:1)] | 10.3% | 6.02 ± 1.09 | 21.7% | 3.53 ± 1.07 | not effective | not significant | 53.1 ± 0.7 m/s | 39.4% | 54.1 ± 0.9 m/s | 34.9% | did not have significant improving effect | did not affect | 19.7 ± 1.38 mg/kg/min | –
O=C(O)/C=C\C(=O)O.[O-][n+]1cccc(C(Cl)=NOC[C@H](O)CN2CCCCC2)c1 [A(+), (+)-/R/-N-[2-hydroxy-3-(1-piperidinyl)-propoxy]-pyridine-1-oxide-3-carboximidoyl chloride (Z)-2-butenedioate (1:1)] | 42.9% | 4.05 ± 0.80 | 68.9% | 1.68 ± 0.63 | significantly improved | effective | 56.1 ± 0.5 m/s | 71.3% | 59.7 ± 0.5 m/s | 68.5% | significantly improved | did not affect | 20.5 ± 0.89 mg/kg/min | 24-hour Urinary Protein Loss Mean ± SE (STZ-diabetic Wistar rats [3]; 5 mg/kg daily, 1 month, series 2): 5.61 ± 1.08 mg/24 h; effect on STZ-diabetes-induced urinary protein loss (STZ-diabetic Wistar rats [3]; Bimoclomol 20 mg/kg, Compound-A 10 mg/kg, (+) enantiomer 5 mg/kg daily): significantly reduced; antidiabetic activity in diabetic animals ([4]; 2×20 mg/kg/day): strong antidiabetic activity; normalization of blood glucose concentrations ([4]; 2×20 mg/kg/day): did not normalize; Fed serum glucose concentrations ([4]; 3 weeks): 10.82 ± 1.36 mmol/L; Fed serum glucose concentrations ([4]; 5 weeks): 13.25 ± 0.76 mmol/L; neuroregeneration of the non-freezed nerves (STZ-diabetic Wistar rats [5]; 5 mg/kg daily for 5 weeks): 83%; neuroregenerative effect (STZ-diabetic Wistar rats [5]; 5 mg/kg daily for 5 weeks): strong neuroregenerative effect; extent of neuroregeneration of the nerve injured by freezing (STZ-diabetic Wistar rats [5]; 5 mg/kg daily for 5 weeks after injury, 5. week, untreated 63%): 93%
